In general, EC50 refers to the concentration at which the effect is half-maximal.

From article PMC10303791 (BMC Biology, 2023) come the findings set out here.

Assay in all cases: two-electrode voltage clamp, oocytes, concentration-response
Common to all, as to assay type: cell-based
Background: Two-electrode voltage clamp holds a large cell at a set potential and records current.

Assay [1] concerns the target T1, Xenopus tropicalis α4β2 nAChR, α4β2(FS) (Xenopus tropicalis, UniProt A0A8J0QAC2+A4IIS6).
T1 construct: gene chrna4; full-length single subunits in pCMV-SPORT6 (Dharmacon), cRNA co-injected in Xenopus laevis oocytes; stoichiometry unknown
An excerpt:
(§1) two-electrode voltage clamp, oocytes, concentration-response on Xenopus tropicalis α4β2 nAChR, α4β2(FS)

In assay [2] the target is T2, Xenopus tropicalis α4β2 nAChR, α4β2(FS) (Xenopus tropicalis, UniProt A0A8J0QAC2+A4IIS6, A4IIS6:S133C).
T2 construct: gene chrna4; full-length single subunits in pCMV-SPORT6 (Dharmacon), cRNA co-injected in Xenopus laevis oocytes; stoichiometry unknown
Source text: as §1

Assay [3] deals with T3, Xenopus tropicalis α4β2 nAChR, α4β2(FS) (Xenopus tropicalis, UniProt A0A8J0QAC2+A4IIS6, A4IIS6:F131L/A4IIS6:S133C).
T3 construct: gene chrna4; full-length single subunits in pCMV-SPORT6 (Dharmacon), cRNA co-injected in Xenopus laevis oocytes; stoichiometry unknown
Source text: as §1

Assay [4] concerns T4, Nanorana parkeri α4β2 nAChR, α4β2(FS).
T4 construct: full-length single subunits, codon-optimized synthetic DNA in pGEMHE, cRNA co-injected in Xenopus laevis oocytes; behaves as 3α:2β (conjecture)
The settings on record: agonist; α4:β2 cRNA ratio 1:3; -70 mV; Ba-ND96 with 1 µM atropine; room temperature; high-sensitivity site of biphasic fit, 95% CI.
Source text: two-electrode voltage clamp, oocytes, concentration-response on Nanorana parkeri α4β2 nAChR, α4β2(FS)

`CC(=O)OCC[N+](C)(C)C` [acetylcholine]: the EC50 came out at 0.047 µM in assay [1], 0.018 µM in assay [2], 0.021 µM in assay [3] and 0.29 µM in assay [4].
